According to article PMC10581193 (Microbiology Spectrum, 2023):
Where two headings read alike, the source gives them in different places.

Columns and labels:
DprE1 = DprE1 (Mycobacterium tuberculosis, UniProt P9WJF1, Y314H); parameters: species or system M. tuberculosis H37Ra
Y48 = assay type: cell-based, M. tuberculosis
Y198 = assay type: cell-based, M. tuberculosis
Y17 = assay type: cell-based, M. tuberculosis

Q: `Cc1nc(C)c(CN2CCOc3c(C(=O)NCC(F)(F)F)cc(C4CC4)cc32)nc1C` [B18, 6-cyclopropyl-N-(2,2,2-trifluoroethyl)-4-((3,5,6-trimethylpyrazin-2-yl)methyl)-3,4-dihydro-2H-benzo[b][1,4]oxazine-8-carboxamide] was tested. Which Amino-acid substitution (DprE1) did it give?
A: Tyr→His

Q: What does the source list for `CC[C@@H](CO)NCCN[C@@H](CC)CO` [EMB, ethambutol]?
A: Drug resistance of clinical isolate (Y48; strain Y48): R; Drug resistance of clinical isolate (Y198; strain Y198): R

Q: For `NNC(=O)c1ccncc1` [INH, isoniazid], which “Drug resistance of clinical isolate” value (Y17; strain Y17) is on record?
A: R

Q: And the “Drug resistance of clinical isolate” value (Y48; strain Y48)?
A: R

Q: What about the “Drug resistance of clinical isolate” value (Y198; strain Y198) of the same compound?
A: R

Q: With `Nc1ccc(C(=O)O)c(O)c1` [PA, p-aminosalicylic acid] as the compound, how does the “Drug resistance of clinical isolate” value (Y48; strain Y48) read?
A: S

Q: What about the “Drug resistance of clinical isolate” value (Y198; strain Y198) of the same compound?
A: R

Q: For `NC(=O)c1cnccn1` [PZA, pyrazinamide], which “Drug resistance of clinical isolate” value (Y198; strain Y198) is on record?
A: R

Q: For `CO[C@H]1/C=C/O[C@@]2(C)Oc3c(C)c(O)c4c(c3C2=O)C2=NC3(CCN(CC(C)C)CC3)NC2=C(NC(=O)/C(C)=C\C=C\[C@H](C)[C@H](O)[C@@H](C)[C@@H](O)[C@@H](C)[C@H](OC(C)=O)[C@@H]1C)C4=O` [RFB, rifabutin], which “Drug resistance of clinical isolate” value (Y198; strain Y198) is on record?
A: R

Q: With `CO[C@H]1/C=C/O[C@@]2(C)Oc3c(C)c(O)c4c(O)c(c(/C=N/N5CCN(C6CCCC6)CC5)c(O)c4c3C2=O)NC(=O)/C(C)=C\C=C\[C@H](C)[C@H](O)[C@@H](C)[C@@H](O)[C@@H](C)[C@H](OC(C)=O)[C@@H]1C` [RFT, rifapentine] as the compound, how does the “Drug resistance of clinical isolate” value (Y198; strain Y198) read?
A: R

Q: What does the source list for `CO[C@H]1/C=C/O[C@@]2(C)Oc3c(C)c(O)c4c(O)c(c(/C=N/N5CCN(C)CC5)c(O)c4c3C2=O)NC(=O)/C(C)=C\C=C\[C@H](C)[C@H](O)[C@@H](C)[C@@H](O)[C@@H](C)[C@H](OC(C)=O)[C@@H]1C` [RMP, rifampicin]?
A: Drug resistance of clinical isolate (Y17): R; Drug resistance of clinical isolate (Y48): R; Drug resistance of clinical isolate (Y198): R

Q: With `[H]/N=C(/N)N[C@H]1[C@H](O)[C@@H](O)[C@H](O[C@@H]2O[C@@H](C)[C@](O)(C=O)[C@H]2O[C@@H]2O[C@@H](CO)[C@H](O)[C@@H](O)[C@@H]2NC)[C@@H](N/C(N)=N\[H])[C@@H]1O` [SM, streptomycin] as the compound, how does the “Drug resistance of clinical isolate” value (Y198; strain Y198) read?
A: R

Q: For `COc1ncnc(Cn2cc(C(=O)NCCO)c3ncc(C)cc32)c1C` [TBA-7371, reference compound], which Amino-acid substitution (DprE1) is on record?
A: Tyr→His
